Results reported in patent US20240238425A1, “HSD17B13 Inhibitors and/or Degraders” (Pfizer Inc., priority 2022, published 2024).
Structures can show the parent of a compound that is named as a salt.

System: HiBiT-HSD17β13 fusion protein (N-terminal HiBiT-tagged HSD17β13 isoform D) in Huh7 HiBiT-HSD17β13 OE cells
Experiment: Whole-cell Huh7-HSD17B13 HiBiT assay (degrader potency and maximal efficacy, luminescence readout)
Type: cell-based, human
Details: 24 hour incubation, geometric mean, * = geometric mean for all forms tested (parent and salt forms); for DC50: read-out: Huh7_HIBIT-HSD17β13_DC50 GMean DC50; for Huh7_HIBIT-HSD17β13_DC50 GMean Asymptote Maximum: max. concentration 1 μM
Procedure, shortened: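 Luminescence from lytic HiBiT detection tracked residual HiBiT-HSD17β13 (isoform D, N-terminal tag) in a stable Huh7 overexpressing clone after 24 h compound treatment at 37° C, 11 concentrations up to 1 μM final. Percent effect used DMSO (zero) and parental Huh7 (high) wells; four-parameter fit gave 50% degradation; viability checked by CellTiter-Glo.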

| DC50 [pM] | SMILES | Huh7_HIBIT-HSD17β13_DC50 GMean Asymptote Maximum |
| --- | --- | --- |
| 640 | Cn1c(=O)n(C2CCC(=O)NC2=O)c2cccc(CCN3CCN(c4ccc5cn([C@H]6CC[C@H](CNC(=O)c7cc(F)c(O)c(F)c7F)CC6)nc5c4)CC3)c21 (mixture of isomers) [Example 56, N-{[(1r,4r)-4-{6-[4-(2-{1-[(3RS)-2,6-dioxopiperidin-3-yl]-3-methyl-2-oxo-2,3-dihydro-1H-benzimidazol-4-yl}ethyl)piperazin-1-yl]-2H-indazol-2-yl}cyclohexyl]methyl}-2,3,5-trifluoro-4-hydroxybenzamide, trifluoroacetate salt] | 82% |
| 650 | Cn1c(=O)n(C2CCC(=O)NC2=O)c2ccc(CCN3CCN(c4nccc(-c5nc([C@]67CC[C@](CNC(=O)c8cc(F)c(O)c(F)c8F)(CC6)CC7)no5)n4)CC3)cc21 (mixture of isomers) [Example 60, N-{[4-(5-{2-[4-(2-{1-[(3RS)-2,6-dioxopiperidin-3-yl]-3-methyl-2-oxo-2,3-dihydro-1H-benzimidazol-5-yl}ethyl)piperazin-1-yl]pyrimidin-4-yl}-1,2,4-oxadiazol-3-yl)bicyclo[2.2.2]octan-1-yl]methyl}-2,3,5-trifluoro-4-hydroxybenzamide, trifluoroacetate salt] | 78% |
| 510 | Cn1c(=O)n(C2CCC(=O)NC2=O)c2ccc(CCN3CCC(Cc4ccc5cn([C@H]6CC[C@H](CNC(=O)c7cc(F)c(O)c(F)c7F)CC6)nc5c4)C(F)(F)C3)cc21 (mixture of isomers) [Example 64, N-{[(1r,4r)-4-(6-{[1-(2-{1-[(3RS)-2,6-dioxopiperidin-3-yl]-3-methyl-2-oxo-2,3-dihydro-1H-benzimidazol-5-yl}ethyl)-3,3-difluoropiperidin-4-yl]methyl}-2H-indazol-2-yl)cyclohexyl]methyl}-2,3,5-trifluoro-4-hydroxybenzamide, trifluoroacetate salt] | 85% |
| 3800 | Cn1c(=O)n(C2CCC(=O)NC2=O)c2ccc(CCCN3CC(F)(F)CC4(CCN(c5ccc6cn([C@H]7CC[C@H](CNC(=O)c8cc(F)c(O)c(F)c8F)CC7)nc6c5)C4=O)C3)cc21 (mixture of isomers) [Example 65, N-{[(1r,4r)-4-{6-[7-(3-{1-[(3RS)-2,6-dioxopiperidin-3-yl]-3-methyl-2-oxo-2,3-dihydro-1H-benzimidazol-5-yl}propyl)-9,9-difluoro-1-oxo-2,7-diazaspiro[4.5]decan-2-yl]-2H-indazol-2-yl}cyclohexyl]methyl}-2,3,5-trifluoro-4-hydroxybenzamide, trifluoroacetate salt] | 81% |
| 320 | Cn1c(=O)n(C2CCC(=O)NC2=O)c2ccc(CCCN3CCN(c4ccc(-c5nc([C@]67CC[C@](CNC(=O)c8cc(F)c(O)c(F)c8F)(CC6)CC7)no5)nn4)CC3)cc21 (mixture of isomers) [Example 66, N-{[4-(5-{6-[4-(3-{1-[(3RS)-2,6-dioxopiperidin-3-yl]-3-methyl-2-oxo-2,3-dihydro-1H-benzimidazol-5-yl}propyl)piperazin-1-yl]pyridazin-3-yl}-1,2,4-oxadiazol-3-yl)bicyclo[2.2.2]octan-1-yl]methyl}-2,3,5-trifluoro-4-hydroxybenzamide, trifluoroacetate salt] | 75% |
| 180 | Cn1c(=O)n(C2CCC(=O)NC2=O)c2ccc(CCCN3CCN(c4ncc(-c5nc([C@]67CC[C@](CNC(=O)c8cc(F)c(O)c(F)c8F)(CC6)CC7)no5)cn4)CC3)cc21 (mixture of isomers) [Example 67, N-{[4-(5-{2-[4-(3-{1-[(3RS)-2,6-dioxopiperidin-3-yl]-3-methyl-2-oxo-2,3-dihydro-1H-benzimidazol-5-yl}propyl)piperazin-1-yl]pyrimidin-5-yl}-1,2,4-oxadiazol-3-yl)bicyclo[2.2.2]octan-1-yl]methyl}-2,3,5-trifluoro-4-hydroxybenzamide, trifluoroacetate salt] | 89% |
| 160 | Cn1c(=O)n(C2CCC(=O)NC2=O)c2ccc(CCCN3CCN(c4cnc(-c5nc([C@]67CC[C@](CNC(=O)c8cc(F)c(O)c(F)c8F)(CC6)CC7)no5)cn4)CC3)cc21 (mixture of isomers) [Example 69, N-{[4-(5-{5-[4-(3-{1-[(3RS)-2,6-dioxopiperidin-3-yl]-3-methyl-2-oxo-2,3-dihydro-1H-benzimidazol-5-yl}propyl)piperazin-1-yl]pyrazin-2-yl}-1,2,4-oxadiazol-3-yl)bicyclo[2.2.2]octan-1-yl]methyl}-2,3,5-trifluoro-4-hydroxybenzamide, trifluoroacetate salt] | 88% |
| 230 | Cn1c(=O)n(C2CCC(=O)NC2=O)c2ccc(CCN3CCOC4(CCN(c5ccc6cn([C@H]7CC[C@H](CNC(=O)c8cc(F)c(O)c(F)c8F)CC7)nc6c5)CC4)C3)cc21 (mixture of isomers) [Example 74, N-{[(1r,4r)-4-{6-[4-(2-{1-[(3RS)-2,6-dioxopiperidin-3-yl]-3-methyl-2-oxo-2,3-dihydro-1H-benzimidazol-5-yl}ethyl)-1-oxa-4,9-diazaspiro[5.5]undecan-9-yl]-2H-indazol-2-yl}cyclohexyl]methyl}-2,3,5-trifluoro-4-hydroxybenzamide, trifluoroacetate salt] | 87% |
| 190 | Cn1c(=O)n(C2CCC(=O)NC2=O)c2ccc(CCCN3CCOC4(CCN(c5ccc6cn([C@H]7CC[C@H](CNC(=O)c8cc(F)c(O)c(F)c8F)CC7)nc6c5)CC4)C3)cc21 (mixture of isomers) [Example 75, N-{[(1r,4r)-4-{6-[4-(3-{1-[(3RS)-2,6-dioxopiperidin-3-yl]-3-methyl-2-oxo-2,3-dihydro-1H-benzimidazol-5-yl}propyl)-1-oxa-4,9-diazaspiro[5.5]undecan-9-yl]-2H-indazol-2-yl}cyclohexyl]methyl}-2,3,5-trifluoro-4-hydroxybenzamide, trifluoroacetate salt] | 88% |
| 150 | Cn1c(=O)n(C2CCC(=O)NC2=O)c2ccc(CCCN3CCN(c4cnc(-c5ccc6cn([C@H]7CC[C@H](CNC(=O)c8cc(F)c(O)c(F)c8F)CC7)nc6c5)nc4)CC3)cc21 (mixture of isomers) [Example 76, N-{[(1r,4r)-4-(6-{5-[4-(3-{1-[(3RS)-2,6-dioxopiperidin-3-yl]-3-methyl-2-oxo-2,3-dihydro-1H-benzimidazol-5-yl}propyl)piperazin-1-yl]pyrimidin-2-yl}-2H-indazol-2-yl)cyclohexyl]methyl}-2,3,5-trifluoro-4-hydroxybenzamide, trifluoroacetate salt] | 89* % |
| 930 | Cn1c(=O)n(C2CCC(=O)NC2=O)c2ccc(CN3CCOC4(CCN(c5ccc6cn([C@H]7CC[C@H](CNC(=O)c8cc(F)c(O)c(F)c8F)CC7)nc6c5)CC4)C3)cc21 (mixture of isomers) [Example 77, N-{[(1r,4r)-4-{6-[4-({1-[(3RS)-2,6-dioxopiperidin-3-yl]-3-methyl-2-oxo-2,3-dihydro-1H-benzimidazol-5-yl}methyl)-1-oxa-4,9-diazaspiro[5.5]undecan-9-yl]-2H-indazol-2-yl}cyclohexyl]methyl}-2,3,5-trifluoro-4-hydroxybenzamide, trifluoroacetate salt] | 86% |
| 470 | Cn1c(=O)n(C2CCC(=O)NC2=O)c2ccc(CN3CCOC4(C3)CN(c3ncc(-c5ccc6cn([C@H]7CC[C@H](CNC(=O)c8cc(F)c(O)c(F)c8F)CC7)nc6c5)cn3)C4)cc21 (mixture of isomers) [Example 78, N-{[(1r,4r)-4-(6-{2-[8-({1-[(3RS)-2,6-dioxopiperidin-3-yl]-3-methyl-2-oxo-2,3-dihydro-1H-benzimidazol-5-yl}methyl)-5-oxa-2,8-diazaspiro[3.5]nonan-2-yl]pyrimidin-5-yl}-2H-indazol-2-yl)cyclohexyl]methyl}-2,3,5-trifluoro-4-hydroxybenzamide, trifluoroacetate salt] | 78% |
| 310 | Cn1c(=O)n(C2CCC(=O)NC2=O)c2ccc(CCN3CCOC4(C3)CN(c3ncc(-c5ccc6cn([C@H]7CC[C@H](CNC(=O)c8cc(F)c(O)c(F)c8F)CC7)nc6c5)cn3)C4)cc21 (mixture of isomers) [Example 79, N-{[(1r,4r)-4-(6-{2-[8-(2-{1-[(3RS)-2,6-dioxopiperidin-3-yl]-3-methyl-2-oxo-2,3-dihydro-1H-benzimidazol-5-yl}ethyl)-5-oxa-2,8-diazaspiro[3.5]nonan-2-yl]pyrimidin-5-yl}-2H-indazol-2-yl)cyclohexyl]methyl}-2,3,5-trifluoro-4-hydroxybenzamide, trifluoroacetate salt] | 78% |
| 1400 | Cn1c(=O)n(C2CCC(=O)NC2=O)c2ccc(C3CC4(CCN(c5ncc(-c6ccc7cn([C@H]8CC[C@H](CNC(=O)c9cc(F)c(O)c(F)c9F)CC8)nc7c6)cn5)CC4)C3)cc21 (mixture of isomers) [Example 80, N-{[(1r,4r)-4-{6-[2-(2-{1-[(3RS)-2,6-dioxopiperidin-3-yl]-3-methyl-2-oxo-2,3-dihydro-1H-benzimidazol-5-yl}-7-azaspiro[3.5]nonan-7-yl)pyrimidin-5-yl]-2H-indazol-2-yl}cyclohexyl]methyl}-2,3,5-trifluoro-4-hydroxybenzamide, trifluoroacetate salt] | 84% |
| 860 | Cn1c(=O)n(C2CCC(=O)NC2=O)c2ccc(CCCN3CCN(c4cccc(-c5nc(C67CCC(CNC(=O)c8cc(F)c(O)c(F)c8F)(CC6)CC7)no5)c4)CC3)cc21 (racemic) [Example 81, N-{[4-(5-{3-[4-(3-{1-[(3RS)-2,6-dioxopiperidin-3-yl]-3-methyl-2-oxo-2,3-dihydro-1H-benzimidazol-5-yl}propyl)piperazin-1-yl]phenyl}-1,2,4-oxadiazol-3-yl)bicyclo[2.2.2]octan-1-yl]methyl}-2,3,5-trifluoro-4-hydroxybenzamide] | 81% |
